# How the values were obtained:
# [1] = test system: Delta/notch-like EFG repeat (DNER); assay: Expression profiling (Agilent microarray) in tumor cell lines: DNER; type: cell-based, human; conditions: 24 hours, treated vs untreated, average of SKOV-3, A549 and Panc-1
# Procedure: (§1) The study includes three human tumor cell lines: A549, Panc-1, and SK-OV-3. The lines are each grown in two flasks cultured to roughly 40% confluence. One of the flasks is treated by addition of compound to the culture media at a various concentrations, i.e. 10 μM, 20 μM 50 μM, 100 μM or 200 μM. The other, mock treated, flask is treated only with the vehicle used to solubilize and deliver the drug. RNA extracted from the pairs of treated and untreated samples is subjected to microarray analysis on Agilent Whole Human Genome Microarrays (G4112F). Each analysis reports the difference in abundance of messenger RNAs for each of the 41,000 specific mRNA detectors on the array. This direct comparison of the treated versus untreated samples for each cell line provides extremely sensitive detection of changes in mRNA abundance resulting from the drug treatment. As each cell line comparison is self-normalized, the results can be compared across the samples with high confidence.
# (§2) Three human tumor cell lines, A549, Panc-1, and SK-OV-3, are each grown in two flasks cultured to roughly 40% confluence. One of the flasks is treated by addition of compound to the culture media at concentrations of 10 μM, 50 μM and 100 μM. The other, mock treated, flask is treated only with the vehicle used to solubilize and deliver the drug. All flasks are cultured for a further 24 hours, and then the cells are scraped free and washed in ice-cold PBS, then collected by centrifugation. The harvested cells are immediately frozen, and stored at −80° C. or colder.
# (§3) Total RNA is prepared from the frozen tissue samples using Trizol-based cell lysis followed by 65° C. hot phenol extraction and RNeasy chromatography purification. The purified RNA samples are analyzed spectrophotometrically. The concentration of RNA is determined by measuring the absorbance at 260 nm (A260). Given an absorbance of 1 unit at 260 nm corresponds to […].
# (§4) All RNAs are labeled using 1 microgram of RNA as input to an Agilent Low Input Labeling reaction.
# (§5) Test RNA is labeled with Cy5 (650 nm emitter) and reference RNA is labeled with Cy3 (550 nm emitter) nucleotides. Labeling, hybridizations and subsequent washings are carried out on Agilent H1Av2 human expression chips. The resulting hybridized chips are scanned on an Agilent microarray scanner, and intensity information for each detector spot is extracted from the scanned image using Agilent feature extraction software. […]
# (§6) After the ratios have been calculated for the normalized data, the various control and duplicate samples are analyzed to build a model of how reproducible the results are, and how this reproducibility is varies depending on signal strength and noise. […]
# [2] = test system: Oligodentrocyte lineage transcription factor 2 (OLIG2); assay: Expression profiling (Agilent microarray) in tumor cell lines: OLIG2; type: cell-based, human; conditions: 24 hours, treated vs untreated, average of SKOV-3, A549 and Panc-1
# Procedure: as §1, §2, §3, §4, §5, §6
# [3] = test system: Myelin basic protein (variant 7) (MBP); assay: Expression profiling (Agilent microarray) in tumor cell lines: MBP; type: cell-based, human; conditions: 24 hours, treated vs untreated, average of SKOV-3, A549 and Panc-1
# Procedure: as §1, §2, §3, §4, §5, §6
# [4] = test system: Myelin oligodentrocyte glycoprotein (variant alpha 4) (MOG); assay: Expression profiling (Agilent microarray) in tumor cell lines: MOG; type: cell-based, human; conditions: 24 hours, treated vs untreated, average of SKOV-3, A549 and Panc-1
# Procedure: as §1, §2, §3, §4, §5, §6
# [5] = test system: Interleukin 23 receptor (IL23R); assay: Expression profiling (Agilent microarray) in tumor cell lines: IL23R; type: cell-based, human; conditions: 24 hours, treated vs untreated, average of SKOV-3, A549 and Panc-1
# Procedure: as §1, §2, §3, §4, §5, §6
# [6] = test system: Transmembrane protein 108 (TMEM108); assay: Expression profiling (Agilent microarray) in tumor cell lines: TMEM108; type: cell-based, human; conditions: 24 hours, treated vs untreated, average of SKOV-3, A549 and Panc-1
# Procedure: as §1, §2, §3, §4, §5, §6
# Connexin (AF251047) = assay: Expression profiling (Agilent microarray) in tumor cell lines: Connexin; type: cell-based, human; conditions: 24 hours, treated vs untreated, average of SKOV-3, A549 and Panc-1
# Procedure: as §1, §2, §3, §4, §5, §6
# [7] = test system: Interleukin 20 receptor alpha (IL20RA); assay: Expression profiling (Agilent microarray) in tumor cell lines: IL20RA; type: cell-based, human; conditions: 24 hours, treated vs untreated, average of SKOV-3, A549 and Panc-1
# Procedure: as §1, §2, §3, §4, §5, §6
# Interleukin 28A (IL28A) = assay: Expression profiling (Agilent microarray) in tumor cell lines: IL28A; type: cell-based, human; conditions: 24 hours, treated vs untreated, average of SKOV-3, A549 and Panc-1
# Procedure: as §1, §2, §3, §4, §5, §6
# [8] = test system: genes in signaling pathways involved in proliferation and differentiation of OPCs; assay: Expression profiling in tumor cell lines: overall statement; type: cell-based, human; conditions: SKOV-3, A549 and Panc-1 cells, Table 1
# Procedure: as §1
# Three human tumor cell lines, A549, Panc-1, and SK-OV-3, are each grown in two flasks cultured to roughly 40% confluence. […]
# as §6
# [9] = test system: oligodendrocyte precursor cells (OPCs); assay: Oligodendrocyte differentiation assay (PLP-EGFP reporter); type: cell-based, mouse; conditions: for Potency in OPC differentiation (in words): 4 days, FIGS. 1 and 3
# Procedure: OPC cultures are prepared as described Pedraza, C. E. et al., Glia 56(12), 1339-52 (2008), incorporated herein by reference. Brains are removed from E14.5 C57Bl6/J (expressing PLP-EGFP) mice (Mallon, B. S. et al., J. Neurosci 22(3), 876-85 (2002)), cleaned and cortical hemispheres are isolated. Tissue is then triturated and seeded in T-25 cm^2 flasks at a density of 1 brain (2 cortical hemispheres) per flask. Neurospheres are passaged once after 3 days. Cells from passage 2 are used to prepare two 96-well plates for the primary screen. Following the initial 48 hour incubation in OPC media, the OPCs are treated with 10 μM of 17β-estradiol, compound 4 and compound 21, along with vehicle control DMSO and positive control compounds including […] ciliary neurotrophic factor (CNTF) and 1 μM extracellular-signal-regulated (ERK) kinase inhibitor (MEKi). Cells are treated for a total of 4 days and the media is replaced once at the 48 hour mark with fresh compounds. After the 4 day treatment the cells are fixed with 4% paraformaldehyde and stained with Hoechst 33342 to visualize nuclei. Cells are also stained with anti-GFAP (GFAP=glial fibrillary acidic protein) antibodies to identify astrocytes. Cells are blocked with 3% normal goat serum followed by an overnight incubation of anti-rabbit GFAP antibody (1:500). Cells are labeled with a 1:1000 concentration of secondary goat anti-rabbit Alexa 647 fluorochrome antibody. Images are acquired using the Cellomics Arrayscan VTI. Twenty fields at 10× magnification are acquired per well and the cells expressing EGFP (enhanced green gluorescent protein; mature oligodendrocytes) and GFAP (astrocytes) are evaluated by neuronal profiling algorithm.
# The extent of oligodendrocyte maturation is measured by the level of the PLP-EGFP reporter signal, along with the extent of process formation (FIGS. 1-4; legend for FIGS. 1 and 3 are presented below in Table 2). Proteolipid protein (PLP) is used as a biomarker because it is known to be expressed in mature oligodendrocytes and is a component of the myelin sheath. […] Compared to DMSO and all other compounds tested, including CNTF, the extent of process formation is also greatest for compound 21 (FIGS. 2 and 4).
Structure (SMILES),Gene expression DNER ([1]; 50 μM),Gene expression OLIG2 ([2]; 50 μM),Gene expression MBP ([3]; 50 μM),Gene expression MOG ([4]; 50 μM),Gene expression IL23R ([5]; 50 μM),Gene expression TMEM108 ([6]; 50 μM),Gene expression Connexin AF251047 (Connexin (AF251047); 50 μM),Gene expression IL20RA ([7]; 50 μM),Gene expression IL28A (Interleukin 28A (IL28A); 50 μM),Effect on genes in signaling pathways involved in proliferation and differentiation of OPCs [8],Potency in OPC differentiation (in words) ([9]; 10 μM),other results
"COC[C@@H]1C[C@@H]2[C@H](CC[C@]3(C)C(O)CC[C@@H]23)c2ccc(O)cc21 (stereo partly drawn) [compound 4, (6R,8R,9S,13S,14S)-6-(methoxymethyl)-13-methyl-7,8,9,11,12,13,14,15,16,17-decahydro-6H-cyclopenta[a]phenanthrene-3,17-diol]",5.16 log2,4.98 log2,4.72 log2,3.99 log2,3.62 log2,3.59 log2,3.38 log2,3.17 log2,1.35 log2,up-regulate,potent,Gene expression DNER ([1]; 100 μM): 5.51 log2; Gene expression OLIG2 ([2]; 100 μM): 4.59 log2; Gene expression MBP ([3]; 100 μM): 4.80 log2; Gene expression MOG ([4]; 100 μM): 4.28 log2; Gene expression IL23R ([5]; 100 μM): 4.86 log2; Gene expression TMEM108 ([6]; 100 μM): 3.62 log2; Gene expression Connexin AF251047 (Connexin (AF251047); 100 μM): 3.56 log2; Gene expression IL20RA ([7]; 100 μM): 3.38 log2; Gene expression IL28A (Interleukin 28A (IL28A); 100 μM): 1.96 log2
"COCCCCCC[C@@H]1C[C@@H]2[C@H](CC[C@]3(C)C(O)CC[C@@H]23)c2ccc(O)cc21 (stereo partly drawn) [compound 21, (6R,8R,9S,13S,14S)-6-(6-methoxyhexyl)-13-methyl-7,8,9,11,12,13,14,15,16,17-decahydro-6H-cyclopenta[a]phenanthrene-3,17-diol]",4.79 log2,5.32 log2,5.04 log2,5.55 log2,5.46 log2,3.96 log2,3.08 log2,4.39 log2,2.59 log2,up-regulate,potent,"Gene expression DNER ([1]; 10 μM): 6.20 log2; Gene expression OLIG2 ([2]; 10 μM): 6.16 log2; Gene expression MBP ([3]; 10 μM): 6.07 log2; Gene expression MOG ([4]; 10 μM): 5.23 log2; Gene expression IL23R ([5]; 10 μM): 5.31 log2; Gene expression TMEM108 ([6]; 10 μM): 3.92 log2; Gene expression Connexin AF251047 (Connexin (AF251047); 10 μM): 2.74 log2; Gene expression IL20RA ([7]; 10 μM): 4.42 log2; Gene expression IL28A (Interleukin 28A (IL28A); 10 μM): 1.44 log2; Activity to differentiate oligodendrocytes compared to DMSO ([9]; 10 μM, 4 days (96 hours), mouse OPC culture, PLP-EGFP signal): 3 fold; Activity to differentiate oligodendrocytes compared to positive control CNTF ([9]; 10 μM, 4 days (96 hours), mouse OPC culture, CNTF 10 μM): 1.5 fold; Activity to differentiate oligodendrocytes compared to positive control MEKi ([9]; 10 μM, 4 days (96 hours), mouse OPC culture, MEKi 1 μM): 2.0 fold; Extent of process formation ([9]; compared to DMSO and all other compounds tested, including CNTF, FIGS. 2 and 4): greatest"
